This is an account of results in US20020032220A1, “Formulations comprising dissolved paroxetine” (SmithKline Beecham plc, priority 1997, published 2002).

The data set in a line: Solubility testing of paroxetine hydrochloride in liquid carriers/solvents. It counts as physicochemical. From the text:
Since solid paroxetine forms are in general only sparingly soluble in common solvents, the solvents which are acceptable for use in capsules and for administration to patients need to be subjected to routine solubility testing to confirm that they can maintain an appropriate concentration of paroxetine. In addition, higher loadings of a paroxetine form in a suitable solvent may be achieved by using conventional physical techniques such as heating, shaking and sonication. Alternatively good solvents for paroxetine may be used in small amounts as cosolvents to solubilize paroxetine in liquids that are acceptable for capsule use but in which paroxetine is poorly soluble. Solubilising agents such as the polysorbates, the poloxamers, cyclodextrins, ionic and non-ionic surface active agents, for example Pluronic F60 and Sorbitan esters may also be used to enhance the solubility of paroxetine hydrochloride in solvents acceptable for capsule use but in which paroxetine is poorly soluble.
The term “oral swallow capsule” most suitably denotes a capsule having a maximum volume of 0.86 ml. Preferred capsules according to the present invention have a maximum volume of about 0.45 ml and more especially may lie in the range 0.2 to 0.4 ml, although capsules as small as 0.14 ml are also provided by the invention. […]

Structures are written as SMILES. Where a name gives a salt, the structure may show the parent alone. Bounds are passed on as bounds.

The compound `Fc1ccc([C@@H]2CCNC[C@H]2COc2ccc3c(c2)OCO3)cc1` [paroxetine hydrochloride] came in with a solubility (oil or lipid, in plant oils (Sunflower, Safflower, Peanut, Soybean, Cottonseed, Corn, Castor, Apricot seed, Olive, Wheat germ, Sesame, Evening Primrose, Canola), Mineral oil, liquid paraffin, Miglyol 810/812, Oleic acid, Ethyl Oleate, Span 80/85, Labrafac lipophile, Plurol Oleique, Peceol) of less than 10 mg/mL.
Turning to `Fc1ccc([C@@H]2CCNC[C@H]2COc2ccc3c(c2)OCO3)cc1` [paroxetine, (−)trans isomer of 4-(4′-fluorophenyl)-3-(3′,4′-methylenedioxy-phenoxymethyl)-piperidine], under “in Propylene Carbonate, Triacetin, Glycerol, Lauroglycol, Propylene glycol, PEG 300, Glycofurol, PEG 400, IPA, Span 20, Transcutol, Labrasol, Labrafil, Olepal, Glyceryl Linoleate (Maisine 35-1), Pharmasolve”, the “solubility (in words)” value is “useful solubility”.

The solubility is how much of the substance goes into solution per volume.
